Among the test systems are SNB-19 CNS; UACC-62 melanoma; M14 melanoma; MDA-N; KM12 colon; HL-60(TB) leukemia; TK-10 renal; SK-MEL-5 melanoma; HS 578T breast; UACC-257 melanoma; SF-539 CNS; MOLT-4 leukemia; MCF7 breast; SK-MEL-2 melanoma; IGROV1 ovarian; T-47D breast; HCT-15 colon.
Holding throughout (assay): inhibition of tumour cell growth, NCI panel, 48 h

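Five compound concentrations were applied to cells in 96-well plates for 48 hours; endpoints were derived by simple linear interpolation of the resulting dose-response curve. At the TGI there is no net growth.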

This is an account of results in PubChem BioAssay (NCI).

With `C=C1[C@H](OC(=O)C(C)C)[C@@H](OC(C)=O)[C@@H](OC(C)=O)C(C)(C)[C@@H]2O[C@H]2[C@@H](C)C(=O)[C@@]2(OC(C)=O)C[C@@](C)(OC(C)=O)[C@H](OC(C)=O)[C@@H]2[C@H]1OC(C)=O`, the TGI in the experiment with SNB-19 CNS, in the experiment on UACC-62 melanoma, with M14 melanoma, in the experiment on MDA-N, in the experiment with KM12 colon and in the experiment with HL-60(TB) leukemia was more than 100 µM throughout. The TGI in the experiment with TK-10 renal, in the experiment with SK-MEL-5 melanoma, in the experiment on HS 578T breast, in the experiment on UACC-257 melanoma, in the experiment on SF-539 CNS and with MOLT-4 leukemia was more than 100 µM throughout. The TGI in the experiment on MCF7 breast, in the experiment with SK-MEL-2 melanoma, in the experiment with IGROV1 ovarian, with T-47D breast and in the experiment on HCT-15 colon was more than 100 µM in each case.

Turning to `CC1=CC=C2c3ccccc3C=CN2C(=O)C1`, the TGI with SNB-19 CNS is more than 100 µM; with UACC-62 melanoma it was more than 100 µM; in the experiment with M14 melanoma, more than 100 µM; in the experiment on MDA-N, more than 100 µM; in the experiment with KM12 colon, more than 100 µM; in the experiment on HL-60(TB) leukemia it was 41.2 µM. Moreover, the TGI with TK-10 renal was 84.9 µM; in the experiment with SK-MEL-5 melanoma, 46.1 µM; in the experiment with HS 578T breast, more than 100 µM; in the experiment on UACC-257 melanoma, more than 100 µM; with SF-539 CNS, more than 100 µM; in the experiment on MOLT-4 leukemia, more than 100 µM. Also, the TGI in the experiment on MCF7 breast, in the experiment with SK-MEL-2 melanoma, with IGROV1 ovarian, in the experiment with T-47D breast and in the experiment on HCT-15 colon was more than 100 µM in each case.

For the compound `COc1cccc(C(=O)Nc2c3ccccc3nc3ccccc23)c1OC`, the TGI in the experiment with SNB-19 CNS, in the experiment with UACC-62 melanoma, with M14 melanoma, with MDA-N, in the experiment with KM12 colon and in the experiment with HL-60(TB) leukemia was more than 100 µM each time. The TGI in the experiment with TK-10 renal, in the experiment on SK-MEL-5 melanoma, in the experiment on HS 578T breast, in the experiment with UACC-257 melanoma, in the experiment with SF-539 CNS and in the experiment with MOLT-4 leukemia was more than 100 µM in each case. Besides, the TGI with MCF7 breast, in the experiment on SK-MEL-2 melanoma, in the experiment with IGROV1 ovarian, with T-47D breast and with HCT-15 colon was more than 100 µM each time.

As to `Cc1c(-c2ccccc2)[nH]c2ccc(Cl)cc2c1=O`, the TGI with SNB-19 CNS is more than 100 µM; with UACC-62 melanoma it was more than 100 µM; in the experiment with M14 melanoma, more than 100 µM; with MDA-N it was 54.6 µM; in the experiment on KM12 colon, 28.1 µM; in the experiment with HL-60(TB) leukemia, more than 100 µM. Also, the TGI is more than 100 µM with TK-10 renal; 56.3 µM with SK-MEL-5 melanoma; more than 100 µM in the experiment with HS 578T breast; more than 100 µM with UACC-257 melanoma; 42.9 µM with SF-539 CNS; more than 100 µM in the experiment on MOLT-4 leukemia. Moreover, the TGI in the experiment with MCF7 breast was more than 100 µM; with SK-MEL-2 melanoma, 87 µM; with IGROV1 ovarian, more than 100 µM; in the experiment on T-47D breast, more than 100 µM; with HCT-15 colon it was more than 100 µM.

`Cc1ccc(/C=N/Nc2nc3ccccc3s2)s1`: the TGI in the experiment on SNB-19 CNS, in the experiment with UACC-62 melanoma, in the experiment with M14 melanoma, in the experiment with MDA-N, with KM12 colon and with HL-60(TB) leukemia was more than 100 µM in each case. For the same compound, the TGI with TK-10 renal, in the experiment with SK-MEL-5 melanoma, in the experiment on HS 578T breast, with UACC-257 melanoma, in the experiment with SF-539 CNS and in the experiment on MOLT-4 leukemia was more than 100 µM in each case. Moreover, the TGI in the experiment with MCF7 breast, in the experiment on SK-MEL-2 melanoma, in the experiment on IGROV1 ovarian, in the experiment on T-47D breast and with HCT-15 colon was more than 100 µM each time.

Take `CC1=C(C)CC(C#N)(C#N)C(C#N)(C#N)C1`: the TGI in the experiment on SNB-19 CNS is more than 10 µM; in the experiment on UACC-62 melanoma, more than 10 µM; in the experiment with M14 melanoma, more than 10 µM; with MDA-N, more than 7.22 µM; in the experiment on KM12 colon, more than 10 µM; in the experiment on HL-60(TB) leukemia, more than 5 µM. In addition, the TGI in the experiment on TK-10 renal is more than 8.75 µM; in the experiment on SK-MEL-5 melanoma, more than 10 µM; with HS 578T breast, more than 10 µM; in the experiment on UACC-257 melanoma it was more than 10 µM; in the experiment with SF-539 CNS, more than 10 µM; in the experiment on MOLT-4 leukemia it was more than 6.09 µM. In addition, the TGI is more than 10 µM in the experiment with MCF7 breast; more than 10 µM with SK-MEL-2 melanoma; more than 5.87 µM in the experiment on IGROV1 ovarian; 9.9 µM with T-47D breast; more than 10 µM with HCT-15 colon.

Turning to `Cc1cc(N)ccc1N=Nc1ccc(S(=O)(=O)CCOS(=O)(=O)O)cc1`, the TGI in the experiment with SNB-19 CNS was 19.3 µM; with UACC-62 melanoma it was 20.3 µM; with M14 melanoma it was 18.4 µM; in the experiment on MDA-N, 0.755 µM; in the experiment with KM12 colon, 13.2 µM; with HL-60(TB) leukemia, more than 38.1 µM. Besides, the TGI in the experiment on TK-10 renal was 27.5 µM; in the experiment on SK-MEL-5 melanoma, 2.23 µM; in the experiment with HS 578T breast, 35.5 µM; in the experiment on UACC-257 melanoma it was 24.3 µM; with SF-539 CNS it was 6.9 µM; in the experiment on MOLT-4 leukemia it was more than 32.5 µM. Moreover, the TGI is 11.8 µM in the experiment with MCF7 breast; 3.89 µM in the experiment on SK-MEL-2 melanoma; 13.9 µM with IGROV1 ovarian; more than 59.1 µM with T-47D breast; 11.3 µM in the experiment on HCT-15 colon.

With `CCN(CC)C(=S)SNc1ccc(S(N)(=O)=O)cc1`, the TGI was more than 100 µM in the experiment with SNB-19 CNS; more than 100 µM with UACC-62 melanoma; more than 67.7 µM in the experiment on M14 melanoma; more than 100 µM in the experiment with MDA-N; more than 100 µM with KM12 colon; more than 100 µM in the experiment with HL-60(TB) leukemia. The TGI with TK-10 renal, with SK-MEL-5 melanoma, with HS 578T breast, in the experiment on UACC-257 melanoma, with SF-539 CNS and in the experiment on MOLT-4 leukemia was more than 100 µM in each case. The TGI in the experiment on MCF7 breast, in the experiment with SK-MEL-2 melanoma, with IGROV1 ovarian, in the experiment on T-47D breast and in the experiment on HCT-15 colon was more than 100 µM throughout.
